Test results as given in patent US10011595B2 (Merck Sharp & Dohme Corp., priority 2014, dated 2018).

Target: human orexin-2 receptor (Homo sapiens (Human), UniProt O43614)
Test: FLIPR Ca2+ Flux Assay, orexin-2 receptor
Format: cell-based
Conditions: CHO cells expressing the human orexin-2 receptor; agonist 70 pM Ala-6,12 orexin-A; read-out: hOX2R FLIPR IC50
Protocol: In a typical experiment the OX1 and OX2 receptor antagonistic activity of the compounds of the present invention was determined in accordance with the following experimental method. For intracellular calcium measurements, Chinese hamster ovary (CHO) cells expressing the rat orexin-1 receptor or the human orexin-2 receptor, are grown in Iscove's modified DMEM containing 2 mM L-glutamine, […], 1% hypoxanthine-thymidine supplement, 100 U/ml penicillin, 100 μg/ml streptomycin and 10% heat-inactivated fetal calf serum (FCS). The cells are seeded at 20,000 cells/well into Becton-Dickinson black 384-well clear bottom sterile plates coated with poly-D-lysine. All reagents were from GIBCO-Invitrogen Corp. The seeded plates are incubated overnight at 37° C. and 5% CO2. Ala-6,12 human orexin-A as the agonist is prepared as a 1 mM stock solution in 1% bovine serum albumin (BSA) and diluted in assay buffer (HBSS containing 20 mM HEPES, 0.1% BSA and 2.5 mM probenecid, pH7.4) for use in the assay at a final concentration of 70 pM. Test compounds are prepared as 10 mM stock solution in DMSO, then diluted in 384-well plates, first in DMSO, then assay buffer. On the day of the assay, cells are washed 3 times with 100 μl assay buffer and then incubated for 60 min (37° C., 5% CO2) in 60 μl assay buffer containing 1 μM Fluo-4AM ester, 0.02% pluronic acid, and 1% BSA. The dye loading solution is then aspirated and cells are washed 3 times with 100 μl assay buffer. 30 μl of that same buffer is left in each well. Within the Fluorescent Imaging Plate Reader (FLIPR, Molecular Devices), test compounds are added to the plate in a volume of 25 μl, incubated for 5 min and finally 25 μl of agonist is added. Fluorescence is measured for each well at 1 second intervals for 5 minutes and the height of each fluorescence peak is compared to the height of the fluorescence peak induced by 70 pM Ala-6,12 orexin-A with buffer in place of antagonist. For each antagonist, IC50 value (the concentration of compound needed to inhibit 50% of the agonist response) is determined. Alternatively, compound potency can be assessed by a radioligand binding assay (described in Bergman et. al. Bioorg. Med. Chem. Lett. 2008, 18, 1425-1430) in which the inhibition constant (Ki) is determined in membranes prepared from CHO cells expressing either the OX1 or OX2 receptor. The intrinsic orexin receptor antagonist activity of a compound which may be used in the present invention may be determined by these assays.

human orexin-2 receptor, sequence (O43614 whole entry): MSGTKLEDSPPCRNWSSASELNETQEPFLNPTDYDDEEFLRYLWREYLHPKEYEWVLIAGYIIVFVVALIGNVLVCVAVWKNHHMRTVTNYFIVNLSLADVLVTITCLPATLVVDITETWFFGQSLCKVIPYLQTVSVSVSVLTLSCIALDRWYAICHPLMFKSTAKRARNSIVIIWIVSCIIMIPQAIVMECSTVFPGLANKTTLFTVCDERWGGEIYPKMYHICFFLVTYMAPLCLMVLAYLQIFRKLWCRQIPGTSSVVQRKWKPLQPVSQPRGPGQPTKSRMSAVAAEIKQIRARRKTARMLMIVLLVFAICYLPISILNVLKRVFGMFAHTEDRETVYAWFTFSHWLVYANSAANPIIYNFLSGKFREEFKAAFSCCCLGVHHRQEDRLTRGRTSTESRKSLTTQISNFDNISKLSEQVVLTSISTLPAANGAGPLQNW

Row | Compound | IC50
1 | CCN(CCN(C)c1nc(C)cc(C)n1)C(=O)c1ccccc1-n1nccn1 [Example A-1, N-(2-((4,6-dimethylpyrimidin-2-yl)(methyl)amino)ethyl)-N-ethyl-2-(2H-1,2,3-triazol-2-yl)benzamide] | 0.0365 µM
2 | CCN(CCN(C)c1cc(C#N)ccn1)C(=O)c1ccccc1-c1nc(C)no1 [Example F-27, N-{2-[(4-cyanopyridin-2-yl)(methyl)amino]ethyl}-N-ethyl-2-(3-methyl-1,2,4-oxadiazol-5-yl)benzamide] | 0.024 µM
3 | CCN(CCN(CC(F)F)c1nc(C)cc(C)n1)C(=O)c1ccccc1-n1nccn1 [Example D-1, N-(2-((2,2-difluoroethyl)(4,6-dimethylpyrimidin-2-yl)amino)ethyl)-N-ethyl-2-(2H-1,2,3-triazol-2-yl)benzamide] | 0.0561 µM
4 | CCN(CCN(C)c1cc(C#N)ccn1)C(=O)c1ccccc1-c1nnn[nH]1 [Example F-5, N-{2-[(4-cyanopyridin-2-yl)(methyl)amino]ethyl}-N-ethyl-2-(1H-tetrazol-5-yl)benzamide] | 10 µM
5 | CCN(CCN(C)c1nc(C)cc(C)n1)C(=O)c1nccnc1-n1nccn1 [Example B-15, N-(2-((4,6-dimethylpyrimidin-2-yl)(methyl)amino)ethyl)-N-ethyl-3-(2H-1,2,3-triazol-2-yl)pyrazine-2-carboxamide] | 1.27 µM
6 | CCN(CCN(C)c1nc(C)cc(C)n1)C(=O)c1ccccc1OCC(F)(F)F [Example B-17, N-{2-[(4,6-dimethylpyrimidin-2-yl)(methyl)amino]ethyl}-N-ethyl-2-(2,2,2-trifluoroethoxy)-benzamide] | 0.0112 µM
7 | CCN(CCN(C)c1cccc(C#N)n1)C(=O)c1ccccc1-n1nccn1 [Example E-22, N-{2-[(6-cyanopyridin-2-yl)(methyl)amino]ethyl}-N-ethyl-2-(2H-1,2,3-triazol-2-yl)benzamide] | 0.569 µM
8 | CCN(CCN(C)c1cc(C#N)ccn1)C(=O)c1ccccc1-c1cnccn1 [Example F-11, N-{2-[(4-cyanopyridin-2-yl)(methyl)amino]ethyl}-N-ethyl-2-pyrazin-2-ylbenzamide] | 0.023 µM
9 | CCN(CCN(C)c1nccc(C(C)(C)O)n1)C(=O)c1cccnc1OCC(F)F [Example H-16, 2-(2,2-difluoroethoxy)-N-ethyl-N-(2-((4-(2-hydroxypropan-2-yl)pyrimidin-2-yl)(methyl)amino)ethyl) nicotinamide] | 0.0242 µM
10 | CCN(CCN(C)c1nc(C)cc(C)n1)C(=O)c1ccc(F)cc1-n1nccn1 [Example B-12, N-(2-((4,6-dimethylpyrimidin-2-yl)(methyl)amino)ethyl)-N-ethyl-4-fluoro-2-(2H-1,2,3-triazol-2-yl)benzamide] | 0.0126 µM
11 | CCN(CCN(C)c1cccc(C(C)(C)O)n1)C(=O)c1ccccc1-n1nccn1 [Example I-1, N-ethyl-N-(2-((6-(2-hydroxypropan-2-yl)pyridin-2-yl)(methyl)amino)ethyl)-2-(2H-1,2,3-triazol-2-yl)benzamide] | 0.0124 µM
12 | CCN(CCN(C)c1nccc(C(C)(C)O)n1)C(=O)c1ccccc1OCC(F)F [Example H-22, 2-(2,2-difluoroethoxy)-N-ethyl-N-(2-((4-(2-hydroxypropan-2-yl)pyrimidin-2-yl)(methyl)amino)ethyl) benzamide] | 0.0177 µM
13 | CCN(CCN(C)c1cc(C#N)ccn1)C(=O)c1ccccc1COC [Example F-16, N-{2-[(4-cyanopyridin-2-yl)(methyl)amino]ethyl}-N-ethyl-2-(methoxymethyl)benzamide] | 0.688 µM
14 | CCN(CCN(C)c1nccc(C#N)c1C)C(=O)c1ccccc1-n1nccn1 [Example E-7, N-(2-((4-cyano-3-methylpyridin-2-yl)(methyl)amino)ethyl)-N-ethyl-2-(2H-1,2,3-triazol-2-yl)benzamide] | 0.198 µM
15 | CCOc1ccccc1C(=O)N(CC)CCN(C)c1nc(C)cc(C)n1 [Example B-13, N-(2-((4,6-dimethylpyrimidin-2-yl)(methyl)amino)ethyl)-2-ethoxy-N-ethylbenzamide] | 0.016 µM
16 | CCN(CCN(C)c1nccc(C(C)(C)O)n1)C(=O)c1ccccc1OC(F)F [Example H-18, 2-(difluoromethoxy)-N-ethyl-N-(2-((4-(2-hydroxypropan-2-yl)pyrimidin-2-yl)(methyl)amino)ethyl) benzamide] | 0.0493 µM

Row | Compound | IC50
17 | CCN(CCN(C)c1nccc(C(C)(C)O)n1)C(=O)c1nccnc1-n1cccn1 [Example H-32, N-ethyl-N-(2-((4-(2-hydroxypropan-2-yl)pyrimidin-2-yl)(methyl)amino)ethyl)-3-(1H-pyrazol-1-yl)pyrazine-2-carboxamide] | 0.054 µM
18 | CCN(CCN(C)c1nc(C)cc(C)n1)C(=O)c1ccccc1C1CCC1 [Example B-26, 2-cyclobutyl-N-{2-[(4,6-dimethylpyrimidin-2-yl)(methyl)amino]ethyl}-N-ethylbenzamide] | 0.0204 µM
19 | CCN(CCN(C)c1nccc(C(C)(C)O)n1)C(=O)c1cccnc1OC(C)C [Example H-14, N-ethyl-N-(2-((4-(2-hydroxypropan-2-yl)pyrimidin-2-yl)(methyl)amino)ethyl)-2-isopropoxynicotinamide] | 0.0654 µM
20 | CCN(CCN(C)c1cc(C#N)ccn1)C(=O)c1ccccc1OC(F)(F)F [Example F-1, {2-[(4-cyanopyridin-2-yl)(methyl)amino]ethyl}-N-ethyl-2-(trifluoromethoxy)benzamide] | 0.0582 µM
21 | CCCN(CCN(C)c1cc(C#N)ccn1)C(=O)c1ccccc1-n1nccn1 [Example G-4, N-(2-((4-cyanopyridin-2-yl)(methyl)amino)ethyl)-N-propyl-2-(2H-1,2,3-triazol-2-yl)benzamide] | 0.0121 µM
22 | CCN(CCN(C)c1nc(C)cc(C)n1)C(=O)c1ccccc1OCC(F)F [Example B-20, 2-(2,2-difluoroethoxy)-N-{2-[(4,6-dimethylpyrimidin-2-yl)(methyl)amino]ethyl}-N-ethylbenzamide] | 0.0092 µM
23 | CCN(CCN(C)c1nc(C)cc(C)n1)C(=O)c1ncccc1-c1ccccc1 [Example B-27, N-{2-[(4,6-dimethylpyrimidin-2-yl)(methyl)amino]ethyl}-N-ethyl-3-phenylpyridine-2-carboxamide] | 0.0125 µM
24 | CCN(CCN(C)c1cc(C#N)ccn1)C(=O)c1ccc(OCC(F)(F)F)nc1 [Example F-31, N-{2-[(4-cyanopyridin-2-yl)(methyl)amino]ethyl}-N-ethyl-6-(2,2,2-trifluoroethoxy)pyridine-3-carboxamide] | 10 µM
25 | CCN(CCN(C)c1nc(C)cc(C)n1)C(=O)c1nccnc1-n1cccn1 [Example B-28, N-{2-[(4,6-dimethylpyrimidin-2-yl)(methyl)amino]ethyl}-N-ethyl-3-(1H-pyrazol-1-yl)pyrazine-2-carboxamide] | 0.0187 µM
26 | CCN(CCN(C)c1cccc(C(C)(C)O)n1)C(=O)c1cccnc1OCC(F)(F)F [Example I-15, N-ethyl-N-(2-((6-(2-hydroxypropan-2-yl)pyridin-2-yl)(methyl)amino)ethyl)-2-(2,2,2-trifluoroethoxy)nicotinamide] | 0.306 µM
27 | CCN(CCN(C)c1nccc(C(C)(C)O)n1)C(=O)c1cccnc1-n1cccn1 [Example H-33, N-ethyl-N-[2-[[4-(1-hydroxy-1-methyl-ethyl)pyrimidin-2-yl]-methyl-amino]ethyl]-2-pyrazol-1-yl-pyridine-3-carboxamide] | 0.037 µM
28 | CCN(CCN(C)c1cc(C#N)ccn1)C(=O)c1cccnc1C(F)(F)F [Example F-8, N-{2-[(4-cyanopyridin-2-yl)(methyl)amino]ethyl}-N-ethyl-2-(trifluoromethyl)pyridine-3-carboxamide] | 1.99 µM
29 | CCN(CCN(C)c1cc(C#N)ccn1)C(=O)c1cccc2[nH]c(=O)oc12 [Example F-18, N-{2-[(4-cyanopyridin-2-yl)(methyl)amino]ethyl}-N-ethyl-2-oxo-2,3-dihydro-1,3-benzoxazole-7-carboxamide] | 10 µM
30 | CCN(CCN(C)c1nc(C)cc(C)n1)C(=O)c1nccnc1-c1ccccn1 [Example B-33, N-{2-[(4,6-dimethylpyrimidin-2-yl)(methyl)amino]ethyl}-N-ethyl-3-pyridin-2-ylpyrazine-2-carboxamide] | 0.023 µM
31 | CCN(CCN(C)c1nc(C)cc(C)n1)C(=O)c1ccccc1OC(F)(F)F [Example B-7, N-(2-((4,6-dimethylpyrimidin-2-yl)(methyl)amino)ethyl)-N-ethyl-2-(trifluoromethoxy)benzamide] | 0.0094 µM
